# Patent publication US10814010B2, “FOXC2 inhibitor and methods of use thereof” (The Board of Regents of The University of Texas System, priority 2018, dated 2020)
# Target: T1, endogenously expressed FOXC2 (Homo sapiens, UniProt Q99958)
# T1 construct: endogenous in cells; host or cells: MDA-MB-231
# T1 sequence (Q99958 1-501): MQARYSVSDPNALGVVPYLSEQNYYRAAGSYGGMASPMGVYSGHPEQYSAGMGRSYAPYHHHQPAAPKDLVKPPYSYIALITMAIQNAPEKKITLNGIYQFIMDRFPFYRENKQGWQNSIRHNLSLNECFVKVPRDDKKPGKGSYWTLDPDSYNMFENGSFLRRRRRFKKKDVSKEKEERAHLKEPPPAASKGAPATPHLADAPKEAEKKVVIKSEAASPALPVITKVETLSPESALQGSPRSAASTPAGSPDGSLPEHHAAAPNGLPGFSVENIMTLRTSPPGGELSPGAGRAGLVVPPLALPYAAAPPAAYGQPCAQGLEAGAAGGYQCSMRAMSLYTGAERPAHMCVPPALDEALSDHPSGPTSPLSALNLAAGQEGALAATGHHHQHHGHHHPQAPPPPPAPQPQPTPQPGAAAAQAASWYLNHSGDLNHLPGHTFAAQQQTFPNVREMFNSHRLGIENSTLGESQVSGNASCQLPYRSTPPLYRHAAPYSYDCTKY
# Test: Drug affinity responsive target stability (DARTS) assay with MDA-MB-231 cell lysate
# Type: binding
# Settings: 20 μM, Western blot
# Protocol: As recombinant FOXC2 was used for the screening and the binding affinity determination, it was important to examine if MC-1-F2 binds to endogenously expressed FOXC2. To this end, a drug affinity responsive target stability assay (DARTS) was performed for MC-1-F2 and MC-C with cell lysate of MDA-MB-231 cells (FIG. 2B). In DARTS, the binding of a small molecule to its cellular target increases protease resistance of the target protein (Pai et al., 2015).
# MDA-MB-231 cell lysate was harvested and incubated with 600 μL of Triton X-100 lysis buffer (50 mM Tris-HCl, 150 mM NaCl, 1 mM EDTA, 1% Triton X-100, pH 8.0) with protease inhibitor and 150 μL of phosphate inhibitor was added. Then frozen overnight followed by addition of 66.7 μL of 10×TNC buffer (1 M Tris-HCl, 5 M NaCl, 1 M CaCl2, pH 8.0) and gently mixed. The lysate was further split into 2 test tubes: Tube (1) 300 μL, Tube (2) 300 μL of cell lysate. The samples were incubated in desired concentration of compounds for 1 hour at room temperature and gently mixed. Once done the lysate of each condition was further split into 5 test tubes for each pronase condition. Pronase stock solution was thawed prior to use and 2 μL of each concentration were added to each tube and allowed to incubate for 20-30 minutes, followed by the addition of SDS loading buffer to stop pronase digestion followed by Western blot analysis.
structure (smiles),measurement,setting,value
N=C(N)NCCCCNc1nc(Nc2ccc(Oc3ccccc3)cc2)nc(N2CCN(c3nc(N)nc(Nc4ccc(N5CCOCC5)cc4)n3)CC2)n1 [MC-1-F2],protection of FOXC2 from pronase-mediated proteolysis (DARTS),,protection of FOXC2 from pronase-mediated proteolysis
same,proteolysis of β-actin (DARTS),pronase,did not affect the proteolysis β-actin
